{"source": "patent EP0324328B1", "about": "“Use of the N-n-butyl derivative of desoxynojirimycin in the manufacture of a medicament inhibiting HIV-Virus” (priority 1987, dated 1989)", "system": "HIV-1", "assay": "Time to develop CPE after transfer of HIV-1 infected cells to drug-free medium", "type": "cell-based", "description": "FIG. 2 is a schematic outline of the test procedure used to determine the relative proportion of HIV-infected cells in cultures containing 0.1 mg/ml of the inhibitory test compound. At various times aliquots of the infected cell suspensions were transferred to inhibitor-free medium and the time taken for the cells to develop cytopathic effect (CPE) was recorded.\nAfter 55 days of culture (O) in the presence of drug no virus appeared during 100 additional days of culture in the absence of drug (after removal of drug).\nTo determine if there was a gradual reduction of HIV-infected cells in cultures maintained with BuDNJ, aliquots of cells infected with 10^4 TCID of HIV-1 and grown in the presence of 0.1 mg/ml BuDNJ for varying lengths of time were transferred to separate wells and grown in drug-free medium as indicated in […]. The cultures were then monitored for development of CPE, indicative of active HIV replication. The times for the appearance of an advanced CPE were recorded. […]\nIn order to determine whether or not there was an actual reduction in HIV-infected cells in the presence of BuDNJ, aliquots of the infected cell suspension, grown for varying times in the presence or drug, where transferred to drug-free medium as outlined in Figure 2. The cultures were then monitored for the development of CPE and giant cell formation (indicative of active HIV replication). […]"}
{"smiles": "CCCCN1C[C@H](O)[C@@H](O)[C@H](O)[C@H]1CO", "note": "[BuDNJ, N-n-butyl-deoxynojirimycin]", "values": [{"measurement": "days before CPE expression", "setting": "0.1 mg/ml drug for 55 days of culture, then culture in the absence of drug", "result": "> 100", "unit": "days"}, {"measurement": "proportion of infected cells in the cultures", "setting": "prolonged exposure, 0.1 mg/ml, result in words", "result": "reduced the proportion of infected cells in the cultures"}]}
